Reference: patent publication US7268164B2, “Anti-epileptogenic agents” (Queens University at Kingston, priority 1997, dated 2007)
Structures can show the parent of a compound that is named as a salt.

Assays:
solubility in saline = format: physicochemical
[1] = tested on: spontaneous recurrent seizures; assay: spontaneous recurrent seizures (SRS) model of epilepsy; format: in vivo, Sprague-Dawley rat; details: for effective in decreasing seizures by at least 50%: administered at Time 1 (Day 1, after status epilepticus, before onset of SRS); for effective in decreasing seizures by at least 50% / effective in decreasing seizures (seizure frequency) by at least 50%: 20 mg/kg/day i.v. for 10 days; for effective in decreasing seizures (seizure frequency) by at least 50%: administered at Time 2 (Day 30, established SRS)
Method: The “spontaneous recurrent seizures” (SRS) model of epilepsy was used to evaluate candidate compounds in a model for Phase 1 epileptogenesis (see, e.g., Mello, E. et al., Epilepsia (1993) 34:985; Cavalheiro, J. et al., Epilepsia (1991) 32:778). In the SRS model, an adult male Sprague-Dawley rat (c. 260 g) is given pilocarpine by injection (380 mg/kg i.p.). Within 25 minutes, the animal enters status epilepticus, which typically lasts for 15-20 hours (although about 10% of animals die at this stage). The rat is allowed to spontaneously recover and is given food and water ad lib. and maintained on a 12 hour/12 hour light/dusk cycle. Rats are usually studied in groups of four. Beginning on about day 13-15, the rats develop spontaneous recurrent seizures, which occur at the rate of about 4-5 per week. The rats are videotaped 24 hours per day, and the videotapes are reviewed for behavioral seizures (including head nodding, forelimb clonus, and rearing), which are counted. The animals are watched for three months, permitting evaluation of a sufficient number of seizures. […] Administration of the candidate compound at Time 1 permits evaluation for anti-epileptogenic properties (ability to prevent the onset of seizures); administration of compounds at Time 2 permits evaluation of drugs as anti-ictogenics with the ability to suppress established seizures.
As a reference, the standard anticonvulsant phenytoin was administered (20 mg/kg/day i.v. for 10 day) at either Time 1 or Time 2.

mice = assay: testing of dioxapiperazine compounds in mice (Example 7); format: in vivo; parameters: key to Activity: 300 mg/kg / Activity: 100 mg/kg / Activity: 30 mg/kg: 0 (inactive); 1: Activity on scale of 0 (inactive) to 4.; 2: Activity on scale of 0 (inactive) to 4.; 3: Activity on scale of 0 (inactive) to 4.; Activity on scale of 0 (inactive) to 4; details: for Activity: 100 mg/kg / Activity: 300 mg/kg / Activity: 30 mg/kg: mice, 30 minutes and four hours after administration; for anti-convulsive activity: animal model system of Table 4, in words
Method: (§1) Selected compounds were dissolved in 0.9% NaCl or suspended in a mixture of 30% polyethylene glycol 400 and 70% water, and tested in an animal model. Briefly, the compounds were administered intraperitoneally or or orally to carsworth Farms #1 mice (in a volume of 0.01 ml/g of body weight) or Sprague-Dawley rats (in a volume of 0.004 ml/g body weight). Times on peak effect and peak neurologic deficit were determined before the anticonvulsant tests were administered.
(§2) The maximal electroshock seizure test (MES), corneal electrodes primed with a drop of electrolyte solution (0.9% NaCl) were applied to the eyes of the animal and an electrical stimulus (50 mA for mice, 150 mA for rats; 60 Hz) was delivered for 0.2 second at the time of the peak effect of the test compound. The animals were restrained by hand and released at the moment of stimulation in order to permit observation of the seizure.
(§3) In the subcutaneous pentylenetetrazol threshold test (scMet), the convulsant dose (CD97) of pentylenetetrazol (85 mg/kg in rats) was injected at the time of peak effect of the test compound. The animals were isolated and observed for 30 minutes to see whether seizures occurred.
(§4) Acute anti-convulsant drug-induced toxicity in lab animals is usually characterized by some type of neurologic abnormality. In mice, these abnormalities can be detected by the rotorod ataxia test, which is somewhat less useful in rats. In the rotorod ataxia test, neurologic deficit is indicated by the inability of the animal to maintain equilibrium for at least one minute on a knurled rod rotating at 6 rpm. […] Inability to return the leg to normal position indicates a neurologi deficit.
Testing of the compounds was performed in 12 mice at doses of 30, 100, 300 mg/kg (4 mice each) 30 minutes and four hours after the test compounds was administered.

[2] = tested on: MES-induced seizure; pentylenetetrazol induced seizure; assay: biological activity per Example 6 (MES, scMet anticonvulsant tests); format: in vivo, carsworth Farms #1 mice or Sprague-Dawley rats; details: tested per Example 6
Method: as §1, §2, §3, §4

Compound: Cc1ccc(C(CC(=O)O)NCl)cc1 (stereo not shown)
- solubility (solubility in saline): 7.2-7.1 (M, 4H)4.17-4.09(t, 1H, 7.4 Hz)2.39-2.46 (m, 2H)solubility: ~10 mg/mlsaline

Compound: O=C(O)CC(NCl)c1ccc(Cl)cc1 (stereo not shown)
- solubility (solubility in saline): 7.3-7.17 (s, 4H)4.07-4.17 (t, 7H, 7.2 Hz)2.45-2.55 (dt, 4.5 Hz, 3.5Hz)solubility: ~10 mg/mlsaline

Compound: NC(CC(=O)O)c1ccccc1 (stereo not drawn) [Compound B5P91, β-Phenyl-β-alanine]
- solubility (solubility in saline): 7.35-7.2 (s, 5H)4.45 (t, 1H, 7.3 Hz)2.8-2.1 (m, 2H)solubility: ~10 mg/mlsaline

Compound: CC(C)(C)C1CCC(C(CN)C(=O)O)CC1.Cl (stereo not drawn) [Compound B5P127, α-(4-tert-Butylcyclohexyl)-β-alanine Hydrochloride Salt]
- effective in decreasing seizures by at least 50% [1]: 75%
- effective in decreasing seizures (seizure frequency) by at least 50% [1]: 50%

Compound: CC1NC(=O)C(c2ccc(O)cc2)NC1=O [c/D-(p-OH)-Peg-L-Ala]
- Activity: 100 mg/kg (mice): 0
- Activity: 300 mg/kg (mice): 0

Compound: NCCCCC1NC(=O)C(c2ccc(O)cc2)NC1=O [c/D-(p-OH)-Peg-L-Lys]
- Activity: 100 mg/kg (mice): 0
- Activity: 300 mg/kg (mice): 0

Compound: NCCCCC1NC(=O)C(c2ccccc2)NC1=O [c/D-Peg-D-Lys]
- Activity: 100 mg/kg (mice): 0
- Activity: 300 mg/kg (mice): 0

Compound: CSCCC1NC(=O)C(c2ccccc2)NC1=O [c/D-Peg-D-Met]
- Activity: 100 mg/kg (mice): 0
- Activity: 300 mg/kg (mice): 0

Compound: NCCC[C@H]1NC(=O)[C@@H](c2ccccc2)NC1=O [c/D-Peg-D-Orn]
- Activity: 100 mg/kg (mice): 0
- Activity: 300 mg/kg (mice): 0

Compound: O=C1CNC(=O)[C@@H](c2ccccc2)N1 [c/D-Peg-Gly]
- Activity: 30 mg/kg (mice): 0
- Activity: 100 mg/kg (mice): 1
- Activity: 300 mg/kg (mice): 2

Compound: C[C@@H]1NC(=O)[C@@H](c2ccccc2)NC1=O [c/D-Peg-L-Ala, Cyclo-D-phenylglycine-L-alanine]
- anti-convulsive activity (mice): strong anti-convulsive activity
- Activity: 30 mg/kg (mice): 2
- Activity: 100 mg/kg (mice): 3
- Activity: 300 mg/kg (mice): 4

Compound: N=C(N)NCCC[C@@H]1NC(=O)[C@@H](c2ccccc2)NC1=O [c/D-Peg-L-Arg]
- Activity: 100 mg/kg (mice): 0
- Activity: 300 mg/kg (mice): 0

Compound: NCCCCC1NC(=O)C(c2ccccc2)NC1=O [c/D-Peg-L-Lys]
- Activity: 100 mg/kg (mice): 0
- Activity: 300 mg/kg (mice): 1

Compound: CSCCC1NC(=O)C(c2ccccc2)NC1=O [c/D-Peg-L-Met]
- Activity: 100 mg/kg (mice): 0
- Activity: 300 mg/kg (mice): 1

Compound: NCCCC1NC(=O)C(c2ccccc2)NC1=O [c/D-Peg-L-Ornithine (Orn)]
- Activity: 100 mg/kg (mice): 0
- Activity: 300 mg/kg (mice): 0

Compound: NCCC1NC(=O)C(c2ccccc2)NC1=O [c/D-Peg-L-diaminobutyric acid]
- Activity: 100 mg/kg (mice): 0
- Activity: 300 mg/kg (mice): 0

Compound: C[C@@H]1NC(=O)[C@H](c2ccccc2)NC1=O [c/L-Peg-L-Ala]
- Activity: 100 mg/kg (mice): 0
- Activity: 300 mg/kg (mice): 0

Compound: CC(C)CC1NC(=O)C(C)NC1=O [c/L-alanine-D-leucine]
- anti-convulsive activity (mice): active

Compound: O=C1NC(=O)C(c2ccccc2)(c2ccccc2)N1 [phenytoin]
- preventing the onset of seizures ([1]; administered at Time 1, 20 mg/kg/day i.v. for 10 day): ineffective
- effective in decreasing seizures (seizure frequency) by at least 50% [1]: 75%

Compound: COc1cc(C)c(C(N)CC(=O)O)cc1C (stereo not drawn) [β-2,5-dimethyl-4-methoxyphenyl-β-alanine]
- biological activity [2]: at least weak activity

Compound: NC(CC(=O)O)c1cccc(C(F)(F)F)c1F (stereo not drawn) [β-2-fluoro-3-(trifluoromethyl)phenyl-β-alanine]
- biological activity [2]: moderate

Compound: COc1cccc(C(N)CC(=O)O)c1O (stereo not drawn) [β-2-hydroxy-3-methoxyphenyl-β-alanine]
- biological activity [2]: at least weak activity

Compound: COc1ccc(C(N)CC(=O)O)cc1C (stereo not drawn) [β-3-methyl-4-methoxyphenyl-β-alanine]
- biological activity [2]: slight

Compound: NCCC(=O)O [β-alanine]
- effective in decreasing seizures by at least 50% [1]: 75%
- effective in decreasing seizures (seizure frequency) by at least 50% [1]: 50%

Compound: NC(CC(=O)O)c1ccc(OC(F)(F)F)cc1 (stereo not drawn) [β-p-(trifluoromethoxy)phenyl-β-alanine]
- biological activity [2]: at least weak activity

Compound: Cc1ccc(C(N)CC(=O)O)cc1 (stereo not drawn) [β-p-methylphenyl-β-alanine hydrochloride]
- biological activity [2]: at least weak activity

Compound: cyclo-D-phenylglycyl-(S-Me)-L-cysteine [c/D-Peg-L-(S-methyl)-L-cysteine]
- anti-convulsive activity (mice): strong anti-convulsive activity
- Activity: 30 mg/kg (mice): 2
- Activity: 100 mg/kg (mice): 3
- Activity: 300 mg/kg (mice): 4
